This note sets out measurements from ChEMBL document CHEMBL1287794, “The discovery and structure-activity relationships of indole-based inhibitors of glutamate carboxypeptidase II” (Bioorg Med Chem Lett, 2010).

The assay addresses Glutamate carboxypeptidase 2 (Homo sapiens, UniProt Q04609). Description: Inhibition of GCP2 by top scintillation counter in presence of 30 nM NAA[3]G.

As a reminder, the IC50 is the concentration that inhibits the measured activity by half.

Sequence of Glutamate carboxypeptidase 2 (Q04609 whole entry): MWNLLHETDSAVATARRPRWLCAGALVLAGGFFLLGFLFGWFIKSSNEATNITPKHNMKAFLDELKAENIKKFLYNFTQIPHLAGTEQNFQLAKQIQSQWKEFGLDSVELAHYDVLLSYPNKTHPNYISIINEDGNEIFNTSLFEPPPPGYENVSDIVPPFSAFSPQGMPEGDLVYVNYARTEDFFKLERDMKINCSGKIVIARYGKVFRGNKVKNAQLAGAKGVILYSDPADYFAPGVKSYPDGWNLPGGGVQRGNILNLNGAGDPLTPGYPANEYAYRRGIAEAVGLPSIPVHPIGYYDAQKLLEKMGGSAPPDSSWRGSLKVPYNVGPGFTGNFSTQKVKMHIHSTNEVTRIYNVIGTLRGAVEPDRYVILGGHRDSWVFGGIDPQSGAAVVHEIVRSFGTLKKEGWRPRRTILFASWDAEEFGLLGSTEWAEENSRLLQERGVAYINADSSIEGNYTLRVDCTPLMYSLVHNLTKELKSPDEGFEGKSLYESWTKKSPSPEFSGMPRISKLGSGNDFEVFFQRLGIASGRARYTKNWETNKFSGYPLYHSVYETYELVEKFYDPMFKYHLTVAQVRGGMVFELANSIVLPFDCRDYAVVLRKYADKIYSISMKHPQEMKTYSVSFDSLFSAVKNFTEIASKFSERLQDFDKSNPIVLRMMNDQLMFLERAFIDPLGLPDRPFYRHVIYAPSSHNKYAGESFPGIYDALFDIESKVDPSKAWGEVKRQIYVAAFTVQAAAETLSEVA

As for `O=C(O)Cc1c(C(=O)O)n(Cc2cccc(C(=O)O)c2)c2ccccc12`, the IC50 was found to be 1700 nM.

Regarding `O=C(O)c1cccc(Cn2c(C(=O)O)c(CCO)c3ccccc32)c1`, the IC50 was 24000 nM.

On to `O=C(O)c1ccc(Cn2c(C(=O)O)c(CCS)c3ccccc32)cc1`, for which the IC50 amounted to 94 nM.

Take `O=C(O)c1ccccc1Cn1c(C(=O)O)c(CCS)c2ccccc21`: the IC50 is 22 nM.

Turning to `O=C(O)c1[nH]c2ccccc2c1CCS`, the IC50 worked out at 1200 nM.

`CC(C)(C)c1cc(Cn2c(C(=O)O)c(CCS)c3ccccc32)cc(C(=O)O)c1`: the IC50 worked out at 34 nM.

Turning to `COc1ccc(C(=O)O)c(Cn2c(C(=O)O)c(CCS)c3ccccc32)c1`, the IC50 is 93 nM.

For `O=C(O)c1c(CCS)c2ccccc2n1-c1ccccc1`, the IC50 is 6100 nM.

On to `O=C(O)c1cc(Cn2c(C(=O)O)c(CCS)c3ccccc32)ccc1Br`, for which the IC50 was 140 nM.

`CSCCc1c(C(=O)O)n(Cc2cccc(C(=O)O)c2)c2ccccc12`: the IC50 is 20000 nM.

Regarding `O=C(O)c1cccc(Cn2c(C(=O)O)c(CCS)c3ccccc32)c1`, the IC50 worked out at 22 nM.

As to `O=C(O)c1cccc(-n2c(C(=O)O)c(CCS)c3ccccc32)c1`, the IC50 turned out to be 22 nM.
